This is an account of results in US20160068902A1, “SEQUENCING NUCLEIC ACIDS BY ENZYME ACTIVATION” (CAERUS MOLECULAR DIAGNOSTICS, priority 2013, published 2016).

The test concerns maltose binding protein/lactamase enzyme (switch enzyme). Briefly: Lactamase switch enzyme activity monitored with chromogenic substrate nitrocefin. The class given is biochemical. The settings on record: for activation of the switch protein: without dephosphorylation; for activation of the switch protein / activation of the switch protein after dephosphorylation: FIG. 4E; for activation of the switch protein after dephosphorylation: dephosphorylated with shrimp alkaline phosphatase. The text has this: A maltose with the 1′ hydroxyl attached to the terminal phosphate of a dNTP should not bind effectively to the switch and so should not activate the maltose binding protein/lactamase enzyme^12. The conjugated maltose/dNTP can be used to detect incorporation of dNTP during a cycle of sequencing by synthesis: the enzyme is only activated after incorporation of a dNTP released phospho-maltose which is then be dephosphorylated to yield the maltose activator. […] Maltose monohydrate (1.44 g) was dissolved in 1 ml of water titrated to pH 12.5 by addition of NaOH and heated to 80° C. Trisodium trimetaphosphate (0.31 g) was added and the mixture reacted at room temperature for 25 hours. The maltose-triphosphate product was purified by anion exchange chromatography on a Dowex 1-X2 resin and eluted with 300 mM KCl.
The switch protein was expressed and purified as previously described^21 and enzyme activity was monitored using the chromogenic substrate nitrocefin. […] Addition of maltose increased the enzyme activity more than 210-fold.

As to `OC[C@H]1O[C@H](O[C@H]2[C@H](O)[C@@H](O)C(O)O[C@@H]2CO)[C@H](O)[C@@H](O)[C@@H]1O` (mixture of isomers) [maltose], the “activation of the switch protein” value was “activates the protein”. Further, the “increase of enzyme activity on addition of maltose” value (10 nM switch enzyme, nitrocefin hydrolysis, FIG. 4A) is “more than 210 fold”. The “Lactamase switch hydrolyses nitrocefin faster after maltose addition” value (FIG. 4(A) legend) was 210 times.

For the compound maltose triphosphate, the “activation of the switch protein after dephosphorylation” value is given as “activation levels similar to that of maltose” and the “activation of the switch protein” value is on record as “no appreciable activation”. For the same compound, the “activation of the switch protein after dephosphorylation” value (listed as Maltose triphosphate) is listed as “significant activation of the lactamase switch only upon dephosphorylation”.
